Experimental data reported in PubChem BioAssay (NCI).
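In this assay, cells in 96-well plates receive the compound at five concentrations for 48 hours. Endpoints are linearly interpolated between the surrounding concentrations. GI50 marks 50% less growth. Definition used: TGI = concentration required for complete inhibition of growth.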

What was measured:
Experiment in all cases: NCI anticancer screen, dose series, 48 h
[1] = tested on: RXF 393 renal
[2] = tested on: SN12C renal
[3] = tested on: MCF7 breast
[4] = tested on: TK-10 renal
[5] = tested on: CAKI-1 renal
[6] = tested on: MDA-MB-435
[7] = tested on: A498 renal
[8] = tested on: M14 melanoma
[9] = tested on: KM12 colon
[10] = tested on: ACHN renal
[11] = tested on: NCI-H23 lung
[12] = tested on: MOLT-4 leukemia
[13] = tested on: SK-MEL-2 melanoma
[14] = tested on: HL-60(TB) leukemia
[15] = tested on: OVCAR-4 ovarian
[16] = tested on: HOP-92 NSCLC
[17] = tested on: SNB-19 CNS
[18] = tested on: SR leukemia
[19] = tested on: OVCAR-3 ovarian
[20] = tested on: SF-268 CNS
[21] = tested on: LOX IMVI melanoma
[22] = tested on: HCT-15 colon
[23] = tested on: T-47D breast
[24] = tested on: HOP-62 NSCLC
[25] = tested on: SK-MEL-28 melanoma
[26] = tested on: A549 NSCLC
[27] = tested on: HCC-2998 colon
[28] = tested on: HT29 colon
[29] = tested on: IGROV1 ovarian
[30] = tested on: SK-MEL-5 melanoma
[31] = tested on: UACC-62 melanoma
[32] = tested on: PC-3 prostate
[33] = tested on: NCI-H522 lung
[34] = tested on: HCT-116 colon
[35] = tested on: SF-539 CNS
[36] = tested on: 786-0 renal
[37] = tested on: SK-OV-3 ovarian
[38] = tested on: BT-549 breast
[39] = tested on: UACC-257 melanoma
[40] = tested on: UO-31 renal
[41] = tested on: MDA-MB-231 breast
[42] = tested on: SF-295 CNS
[43] = tested on: NCI/ADR-RES ovarian
[44] = tested on: NCI-H460 lung
[45] = tested on: SNB-75 CNS
[46] = tested on: K-562 leukemia
[47] = tested on: COLO 205 colon
[48] = tested on: OVCAR-5 ovarian
[49] = tested on: RPMI-8226 leukemia
[50] = tested on: HS 578T breast
[51] = tested on: SW-620 colon
[52] = tested on: EKVX NSCLC
[53] = tested on: DU-145 prostate
[54] = tested on: MALME-3M melanoma
[55] = tested on: NCI-H226 lung
[56] = tested on: OVCAR-8 ovarian
[57] = tested on: U251 CNS
[58] = tested on: CCRF-CEM leukemia

For NC(=O)c1cn(C2CC(O)C(CO)O2)c2ncnc(N)c12 (stereo not given), the GI50 [1] was 2.08 µM, the TGI [1] was 13.9 µM and the GI50 [2] was 1.56 µM. It also gave a TGI [2] of 31.1 µM, a GI50 [3] of 0.376 µM and a TGI [3] of 13.9 µM. For the same molecule, the GI50 [4] was 1.96 µM, the TGI [4] was 19.5 µM and the GI50 [5] was 3.2 µM. For the same molecule, the TGI [5] was 39.4 µM, the GI50 [6] was 2.42 µM and the TGI [6] was over 100 µM. It also gave a GI50 [7] of 1.97 µM, a TGI [7] of 7.93 µM and a GI50 [8] of 3.12 µM. The TGI [8] was 22.6 µM, the GI50 [9] was 5.18 µM and the TGI [9] was 28.4 µM. For the same molecule, the GI50 [10] was 3.62 µM, the TGI [10] was over 58.1 µM and the GI50 [11] was 2.5 µM. It also gave a TGI [11] of 18.8 µM, a GI50 [12] of 0.611 µM and a TGI [12] of over 100 µM. It also gave a GI50 [13] of 10.5 µM, a TGI [13] of over 28.2 µM and a GI50 [14] of 2.73 µM. The TGI [14] was 20 µM, the GI50 [15] was 6.26 µM and the TGI [15] was over 100 µM. It also gave a GI50 [16] of 0.429 µM, a TGI [16] of 13.6 µM and a GI50 [17] of 7 µM. The TGI [17] was 45.5 µM, the GI50 [18] was 6.6 µM and the TGI [18] was over 100 µM. For the same molecule, the GI50 [19] was 4.09 µM, the TGI [19] was 19.6 µM and the GI50 [20] was 6.17 µM. It also gave a TGI [20] of over 76.9 µM, a GI50 [21] of 1.2 µM and a TGI [21] of 4.43 µM. For the same molecule, the GI50 [22] was 3.89 µM, the TGI [22] was 55.2 µM and the GI50 [23] was 0.0549 µM. The TGI [23] was 1.82 µM, the GI50 [24] was 5.36 µM and the TGI [24] was 49.7 µM. It also gave a GI50 [25] of 7.28 µM, a TGI [25] of over 83.1 µM and a GI50 [26] of 5.2 µM. The TGI [26] was 41.1 µM, the GI50 [27] was 1.47 µM and the TGI [27] was 5.62 µM. The GI50 [28] was 2.07 µM, the TGI [28] was over 54.8 µM and the GI50 [29] was 0.749 µM. The TGI [29] was 5.16 µM, the GI50 [30] was 5.42 µM and the TGI [30] was 31.9 µM. The GI50 [31] was 2.39 µM, the TGI [31] was 23 µM and the GI50 [32] was 1.57 µM. It also gave a TGI [32] of over 35.4 µM, a GI50 [33] of 4.27 µM and a TGI [33] of 16.2 µM. It also gave a GI50 [34] of 4.1 µM, a TGI [34] of over 100 µM and a GI50 [35] of 3.34 µM. For the same molecule, the TGI [35] was 15.1 µM, the GI50 [36] was 4.15 µM and the TGI [36] was 18.9 µM. For the same molecule, the GI50 [37] was 1.68 µM, the TGI [37] was 43 µM and the GI50 [38] was 0.203 µM. It also gave a TGI [38] of 2.87 µM, a GI50 [39] of 11 µM and a TGI [39] of over 63.4 µM. For the same molecule, the GI50 [40] was 1.84 µM, the TGI [40] was 18.5 µM and the GI50 [41] was 3.26 µM. For the same molecule, the TGI [41] was 21.2 µM, the GI50 [42] was 12.6 µM and the TGI [42] was over 76.6 µM. It also gave a GI50 [43] of 2 µM, a TGI [43] of 24.2 µM and a GI50 [44] of 7.69 µM. The TGI [44] was over 100 µM, the GI50 [45] was 1.52 µM and the TGI [45] was 9.47 µM. It also gave a GI50 [46] of 4.21 µM, a TGI [46] of over 100 µM and a GI50 [47] of 5.01 µM. It also gave a TGI [47] of 24 µM, a GI50 [48] of 9.81 µM and a TGI [48] of over 71.6 µM. For the same molecule, the GI50 [49] was 27.7 µM, the TGI [49] was over 100 µM and the GI50 [50] was 2.27 µM. For the same molecule, the TGI [50] was 17.3 µM, the GI50 [51] was 2.58 µM and the TGI [51] was 20.6 µM. For the same molecule, the GI50 [52] was 1.92 µM, the TGI [52] was over 23.2 µM and the GI50 [53] was 1.41 µM. It also gave a TGI [53] of 10.4 µM, a GI50 [54] of 0.763 µM and a GI50 [55] of 3.19 µM. The TGI [55] was 17.4 µM, the GI50 [56] was 2.09 µM and the TGI [56] was 17.9 µM. The GI50 [57] was 17.7 µM, the TGI [57] was over 100 µM and the GI50 [58] was 0.0888 µM. The TGI [58] was over 100 µM.
